# According to US20160145247A1, “Aminomethyl-Biaryl Derivatives Complement Factor D inhibitors and uses thereof” (NOVARTIS AG, priority 2013, published 2016):
# pIC50: −log10 of the molar value.
# Target: T1, factor D (Homo sapiens, UniProt P00746)
# T1 construct: made in house; host or cells: E. coli
# Assay: factor D inhibition assay of Biological Example 2
# Format: biochemical
# T1 sequence (P00746 26-253): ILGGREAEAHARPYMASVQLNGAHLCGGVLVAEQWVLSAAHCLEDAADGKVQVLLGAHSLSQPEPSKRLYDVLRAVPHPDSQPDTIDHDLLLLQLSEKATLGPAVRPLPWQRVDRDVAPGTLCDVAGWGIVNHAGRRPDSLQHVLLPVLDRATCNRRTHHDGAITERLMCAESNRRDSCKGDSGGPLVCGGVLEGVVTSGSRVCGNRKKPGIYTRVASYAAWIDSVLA
row,pIC50,Structure (SMILES)
1,7.74,"CNc1cc(COc2ccccc2CC(=O)O)cc(-c2cccc([C@H](N)CO)c2)c1 [Example 131, (S)-2-(2-((3′-(1-Amino-2-hydroxyethyl)-5-(methylamino)-[1,1′-biphenyl]-3-yl)methoxy)phenyl)acetic acid]"
2,7.92,CCc1ccc(CC(=O)O)c(NC(=O)c2cccc(-c3cc(F)cc(CN)c3)n2)c1 [Example 21-O]
3,7.36,"C[C@@H](N)c1cccc(-c2cccc(N(C)Cc3ccccc3CC(=O)O)c2)c1F [Example 220-D, (R)-2-(2-(((3′-(1-aminoethyl)-2′-fluoro-[1,1′-biphenyl]-3-yl)(methyl)amino)methyl)phenyl)acetic acid]"
4,7.52,"CC(=O)Nc1cc(C(=O)Nc2ccccc2CC(=O)O)cc(-c2cc(F)cc(CN)c2)c1 [Example 67-B, 2-(2-(5-Acetamido-3′-(aminomethyl)-5′-fluoro-[1,1′-biphenyl]-3-ylcarboxamido)phenyl)acetic acid]"
5,4.84,"NCc1cccc(-c2cc(C(=O)Nc3ccccc3CC(=O)O)ccn2)c1 [Example 38, 2-(2-(2-(3-(Aminomethyl)phenyl)isonicotinamido)phenyl)acetic acid]"
6,7.62,C[C@@H](N)c1cccc(-c2cc(COc3ccccc3CC(=O)O)cc(N(C)CCF)c2)c1F [Example 216-L]
7,5.82,NCc1cncc(-c2cc(COc3ccccc3CC(=O)O)cc(OC[C@H]3CCCO3)c2)c1 [Example 138-C]
8,7.85,C[C@H](N)c1cccc(-c2cc(COc3ccccc3CC(=O)O)cc(OCc3cncn3C)c2)c1F [Example 214-P]
9,8.22,"C[C@@H](N)c1cccc(-c2ccc(C3CC3)c(COc3ccccc3CC(=O)O)c2)c1F [Example 280, (R)-2-(2-((3′-(1-aminoethyl)-4-cyclopropyl-2′-fluoro-[1,1′-biphenyl]-3-yl)methoxy)phenyl)acetic acid]"
10,5.96,"NC(=O)C(N)c1cccc(-c2cccc(COc3ccccc3CC(=O)O)c2)c1 (racemic) [Example 189, (±)-2-(2-((3′-(1,2-Diamino-2-oxoethyl)-[1,1′-biphenyl]-3-yl)methoxy)phenyl)acetic acid]"
11,7.74,C[C@@H](N)c1cccc(-c2cc(COc3ccccc3CC(=O)O)cc(OCC3CCOCC3)c2)c1F [Example 214-D]
12,7.51,C[C@@H](N)c1cccc(-c2cc(COc3ccccc3CC(=O)O)cc(N(C)CC3CCCC3)c2)c1F [Example 216-F]
13,8.70,"NCc1cccc(-c2cc(NC3CC3)cc(C(=O)Nc3ccccc3CC(=O)O)n2)c1 [Example 50, 2-(2-(6-(3-(aminomethyl)phenyl)-4-(cyclopropylamino)picolinamido)phenyl)acetic acid]"
14,7.46,NC(CF)c1cccc(-c2cc(CNCC(F)(F)F)cc(COc3ccccc3CC(=O)O)c2)c1F (stereo not drawn) [Example 285-A]
15,6.51,"N[C@H](CO)c1cccc(-c2cccc(COc3ccccc3CC(=O)O)c2F)c1 [Example 123, (S)-2-(2-((3′-(1-Amino-2-hydroxyethyl)-2-fluoro-[1,1′-biphenyl]-3-yl)methoxy)phenyl)acetic acid]"
16,7.89,"C[C@@H](N)c1cccc(-c2cc(COc3ccccc3CC(=O)O)cc(C3CCCCC3)c2)c1F [Example 243-D, (R)-2-(2-((3′-(1-aminoethyl)-5-cyclohexyl-2′-fluoro-[1,1′-biphenyl]-3-yl)methoxy)phenyl)acetic acid]"
17,7.85,"C[C@@H](N)c1cccc(-c2cc(COc3ccccc3CC(=O)O)cc(OCC3(C)COC3)c2)c1 [Example 263, (R)-2-(2-((3′-(1-aminoethyl)-5-((3-methyloxetan-3-yl)methoxy)-[1,1′-biphenyl]-3-yl)methoxy)phenyl)acetic acid]"
18,8.40,"NCc1cccc(-c2cc(COc3ccccc3CC(=O)O)c3cn[nH]c3c2)c1 [Example 179, 2-(2-((6-(3-(Aminomethyl)phenyl)-1H-indazol-4-yl)methoxy)phenyl)acetic acid]"
19,5.11,NCc1cc(F)cc(-c2cccc(C(=O)Nc3cccc(Br)c3CC(=O)O)c2)c1 [Example 21-G]
20,8.30,CC(O)c1cc(COc2ccccc2CC(=O)O)cc(-c2cccc([C@@H](C)N)c2)c1 (stereo partly drawn) [Example 116-F]
21,8.40,"C[C@@H](N)c1cccc(-c2cc(COc3ccccc3CC(=O)O)cc(NCC3CC3)c2)c1F [Example 150-C, (R)-2-(2-((3′-(1-Aminoethyl)-5-((cyclopropylmethyl)amino)-2′-fluoro-[1,1′-biphenyl]-3-yl)methoxy)phenyl)acetic acid]"
22,6.83,CCC[C@@H](N)c1cccc(-c2cc(COc3ccccc3CC(=O)O)cc(N3CCCC3)c2)c1F [Example 199-A]
23,5.73,"NCc1cccc(-c2cccc(OCc3ccccc3CC(=O)O)n2)c1 [Example 99-C, 2-(2-(((6-(3-(Aminomethyl)phenyl)pyridin-2-yl)oxy)methyl)phenyl)acetic acid]"

row,pIC50,Structure (SMILES)
1,7.77,"NCc1cc(F)cc(-c2cc(OCc3ccncc3)cc(C(=O)Nc3ccccc3CC(=O)O)c2)c1 [Example 65, 2-(2-(3′-(Aminomethyl)-5′-fluoro-5-(pyridin-4-ylmethoxy)-[1,1′-biphenyl]-3-ylcarboxamido)phenyl)acetic acid]"
2,6.97,"NCc1cc(F)cc(-c2cccc(C(=O)Nc3ccccc3CC(=O)O)c2)c1 [Example 6-B, 2-(2-(3′-(Aminomethyl)-5′-fluoro-[1,1′-biphenyl]-3-ylcarboxamido)phenyl)acetic acid]"
3,6.74,"NCc1cccc(-c2ccc3c(c2)C(Oc2ccccc2CC(=O)O)CCO3)c1 (single isomer, unassigned) [177 b) (tr = 8.8 min), (−) or (+)-2-(2-((6-(3-(aminomethyl)phenyl)chroman-4-yl)oxy)phenyl)acetic acid]"
4,4.30,Cc1c(-c2cccc(COc3ccccc3CC(=O)O)c2)cccc1[C@H](N)CO [Example 142-C]
5,8.05,"CCNc1cc(COc2ccccc2CC(=O)O)cc(-c2cccc([C@H](N)CO)c2)c1 [Example 129, (S)-2-(2-((3′-(1-Amino-2-hydroxyethyl)-5-(ethylamino)-[1,1′-biphenyl]-3-yl)methoxy)phenyl)acetic acid]"
6,8.10,C[C@@H](N)c1cccc(-c2cc(COc3ccccc3CC(=O)O)cc(OCCF)c2)c1F [Example 214-C]
7,5.95,"NCc1cccc(-c2cccc(COc3ccccc3CC(=O)O)n2)c1 [Example 160, 2-(2-((6-(3-(aminomethyl)phenyl)pyridin-2-yl)methoxy)phenyl)acetic acid]"
8,7.96,"CC(C)Nc1cc(COc2ccccc2CC(=O)O)cc(-c2cccc([C@@H](C)N)c2F)c1 [Example 152, (R)-2-(2-((3′-(1-aminoethyl)-2′-fluoro-5-(isopropylamino)-[1,1′-biphenyl]-3-yl)methoxy)phenyl)acetic acid]"
9,7.89,C[C@@H](N)c1cccc(-c2cc(COc3ccccc3CC(=O)O)cc(C(C)(C)O)c2)c1F [Example 120-G]
10,8.00,"COCc1cc(COc2ccccc2CC(=O)O)cc(-c2cccc(C(N)CF)c2F)c1 (racemic) [Example 205-B, (±)-2-(2-((3′-(1-Amino-2-fluoroethyl)-2′-fluoro-5-(methoxymethyl)-[1,1′-biphenyl]-3-yl)methoxy)phenyl)acetic acid]"
11,8.00,"C[C@@H](N)c1cccc(-c2cc(COc3ccccc3CC(=O)O)cc(C(O)C(F)(F)F)c2)c1 (single isomer, unassigned) [116-H b) (tr = 3.0 min)]"
12,7.15,"Cc1cc(CN)cc(-c2cccc(COc3ccccc3CC(=O)O)c2)c1 [Example 292-B, 2-(2-((3′-(aminomethyl)-5′-methyl-[1,1′-biphenyl]-3-yl)methoxy)phenyl)acetic acid]"
13,8.05,"CC(C)CNc1cc(COc2ccccc2CC(=O)O)cc(-c2cccc([C@@H](C)N)c2F)c1 [Example 224-B, (R)-2-(2-((3′-(1-aminoethyl)-2′-fluoro-5-(isobutylamino)-[1,1′-biphenyl]-3-yl)methoxy)phenyl)acetic acid]"
14,8.22,NCc1cccc(-c2cc(COc3ccccc3CC(=O)O)cc(C(Nc3ccccc3)C(F)(F)F)c2)c1 (stereo not drawn) [Example 208-C]
15,7.47,"C[C@@H](N)c1cccc(-c2cc(COc3ccccc3CC(=O)O)cc(OCC3CCCN3)c2)c1F (stereo partly drawn) [Example 266, 2-(2-((3′-((R)-1-aminoethyl)-2′-fluoro-5-(pyrrolidin-2-ylmethoxy)-[1,1′-biphenyl]-3-yl)methoxy)phenyl)acetic acid]"
16,7.26,C[C@@H](N)c1cccc(-c2cc(CO)cc(COc3ccccc3CC(=O)O)c2)c1F [Example 120-B]
17,7.05,"CCN(CC1CC1)c1cc(COc2ccccc2CC(=O)O)cc(-c2cccc([C@@H](C)N)c2F)c1 [Example 242-C, (R)-2-(2-((3′-(1-aminoethyl)-5-((cyclopropylmethyl)(ethyl)amino)-2′-fluoro-[1,1′-biphenyl]-3-yl)methoxy)phenyl)acetic acid]"
18,8.22,"N[C@H](CO)c1cccc(-c2cc(COc3ccccc3CC(=O)O)cc(C(O)C(F)(F)F)c2)c1 (mixture of isomers) [116-G a), 2-(2-((3′-((S)-1-amino-2-hydroxyethyl)-5-(2,2,2-trifluoro-1-hydroxyethyl)-[1,1′-biphenyl]-3-yl)methoxy)phenyl)acetic acid]"
19,6.67,"NC(CF)c1cccc(-c2cccc(COc3ccccc3CC(=O)O)c2)c1 (single isomer, unassigned; (-)) [Example 190-B (−), (−)-2-(2-((3′-(1-amino-2-fluoroethyl)-[1, 1′-biphenyl]-3-yl)methoxy)phenyl)acetic acid]"
20,8.22,"NC(CF)c1cccc(-c2cc(COc3ccccc3CC(=O)O)cc(OC[C@H]3CCCO3)c2)c1F (single isomer, unassigned; (+)) [Example 212-B]"
21,7.40,"C[C@@H](N)c1cccc(-c2cc(COc3ccccc3CC(=O)O)cc(N3CCCCC3)c2)c1F [Example 241-C, (R)-2-(2-((3′-(1-Aminoethyl)-2′-fluoro-5-(piperidin-1-yl)-[1,1′-biphenyl]-3-yl)methoxy)phenyl)acetic acid]"
22,7.25,N[C@@H](CF)c1cccc(-c2cc(COc3ccccc3CC(=O)O)cc(NCC3CC3)c2)c1F [Example 216-B]
